Each structure is given as a SMILES string.

The subject of this assay is HIV. The experiment in a line: MT4 Assay (anti-HIV activity). It counts as cell-based. As to conditions: Human immunodeficiency virus 1, 96 h, read-out: HIV MT4 Assay IC50, HTLV-1 transformed cell line MT-4, cell titer glo, 10 point dose response curve. The method, boiled down:
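IC50 values were fitted to 10-point dose-response series (3-4-fold dilutions, range >1000-fold), normalized to no-compound control. CellTiter-Glo read-out was taken after 96 hours in HTLV-1-transformed MT-4 cells. Cytotoxicity was measured in parallel under identical conditions.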
A word on the IC50: it is the concentration at which inhibition is half-maximal. As for `Cn1c(C(OC(C)(C)C)C(=O)O)c(-c2ccc(Cl)cc2)c2ccccc2c1=O` (stereo not shown) [Example 154, [4-(4-chlorophenyl)-2-methyl-1-oxo-1,2-dihydro-3-isoquinolinyl][(1,1-dimethylethyl)oxy]acetic acid], the IC50 amounted to 2.09 µM.

With `Cc1c(-c2c([C@H](OC(C)(C)C)C(=O)O)n(C)c(=O)c3cc(OCc4cccs4)ccc23)cc(F)c2c1CCCO2` [Example 109, (2S)-2-(tert-butoxy)-2-[4-(8-fluoro-5-methyl-3,4-dihydro-2H-1-benzopyran-6-yl)-2-methyl-1-oxo-7-(thiophen-2-ylmethoxy)-1,2-dihydroisoquinolin-3-yl]acetic acid], the IC50 stood at 0.02 µM. Turning to `Cc1ccc(-c2c(C(OC(C)(C)C)C(=O)O)n(C)c(=O)c3cc(-c4cn(CCO)nn4)ccc23)c(C)c1` (stereo not shown) [Example 219, [(1,1-dimethylethyl)oxy]{4-(2,4-dimethylphenyl)-7-[1-(2-hydroxyethyl)-1H-1,2,3-triazol-4-yl]-2-methyl-1-oxo-1,2-dihydro-3-isoquinolinyl}acetic acid], the IC50 amounted to 11.1 µM. Then `Cc1c(-c2c(C(OC(C)(C)C)C(=O)O)n(C)c(=O)c3cc(OCc4ccc(C(F)(F)F)cc4)ccc23)ccc2c1CCCO2` (stereo not shown) [Example 132, 2-(tert-butoxy)-2-[2-methyl-4-(5-methyl-3,4-dihydro-2H-1-benzopyran-6-yl)-1-oxo-7-{[4-(trifluoromethyl)phenyl]-methoxy}-1,2-dihydroisoquinolin-3-yl]acetic acid], with 0.31 µM; and `COc1cc(-c2c(C(OC(C)(C)C)C(=O)O)n(C)c(=O)c3ccccc23)cc(OC)c1OC` (stereo not shown) [Example 27, 2-(tert-butoxy)-2-[2-methyl-1-oxo-4-(3,4,5-trimethoxyphenyl)-1,2-dihydroisoquinolin-3-yl]acetic acid], with 50 µM; and `Cc1c(-c2c([C@H](OC(C)(C)C)C(=O)O)n(C)c(=O)c3cc(-c4cnn(C)c4)ccc23)cc(F)c2c1CCCO2` (atropisomer, axis not shown; (M)) [Example 200, (2S)(M)-[(1,1-dimethylethyl)oxy][4-(8-fluoro-5-methyl-3,4-dihydro-2H-chromen-6-yl)-2-methyl-7-(1-methyl-1H-pyrazol-4-yl)-1-oxo-1,2-dihydro-3-isoquinolinyl]ethanoic acid], with 0.11 µM. Regarding `Cc1c(-c2c(C(OC(C)(C)C)C(=O)O)n(C)c(=O)c3cc(OCc4ccc(F)cn4)ccc23)ccc2c1CCCO2` (stereo not shown) [Example 100, 2-(tert-butoxy)-2-{7-[(5-fluoropyridin-2-yl)methoxy]-2-methyl-4-(5-methyl-3,4-dihydro-2H-1-benzopyran-6-yl)-1-oxo-1,2-dihydroisoquinolin-3-yl}acetic acid], the IC50 amounted to 0.27 µM. The value for `Cn1c(C(OC(C)(C)C)C(=O)O)c(-c2ccc3c(c2Cl)CCCO3)c2ccccc2c1=O` (stereo not shown) [Example 21, 2-(tert-butoxy)-2-[4-(5-chloro-3,4-dihydro-2H-1-benzopyran-6-yl)-2-methyl-1-oxo-1,2-dihydroisoquinolin-3-yl]acetic acid] was 3.5 µM; that for `Cc1c(-c2c([C@H](OC(C)(C)C)C(=O)O)n(C)c(=O)c3cc(-c4cccnc4)ccc23)cc(F)c2c1CCCO2` (atropisomer, axis not shown; (M)) [Example 206, (2S)(M)-[(1,1-dimethylethyl)oxy][4-(8-fluoro-5-methyl-3,4-dihydro-2H-chromen-6-yl)-2-methyl-1-oxo-7-(3-pyridinyl)-1,2-dihydro-3-isoquinolinyl]ethanoic acid] was 0.16 µM. With `Cc1c(-c2c([C@H](OC(C)(C)C)C(=O)O)n(C)c(=O)c3cc(Nc4ccc(Cl)c(F)c4)ccc23)cc(F)c2c1CCCO2` (atropisomer, axis not shown; (M)) [Example 165, (2S)(M)-[7-[(4-chloro-3-fluorophenyl)amino]-4-(8-fluoro-5-methyl-3,4-dihydro-2H-chromen-6-yl)-2-methyl-1-oxo-1,2-dihydro-3-isoquinolinyl][(1,1-dimethylethyl)oxy]ethanoic acid], the IC50 is 0.1 µM.

For the origin of these results see US9029391B2 (priority 2011, dated 2015).
